In PubChem BioAssay (NCI):
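Compound exposure: 48 hours, 5 concentrations, 96-well plates. TGI marks complete inhibition of growth.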

Key:
Experiment in all cases: NCI-60 cell line screen, 48 h
NCI-H522 lung = system: NCI-H522 lung
CAKI-1 renal = system: CAKI-1 renal
XF 498 CNS = system: XF 498 CNS
SNB-78 CNS = system: SNB-78 CNS
HOP-62 NSCLC = system: HOP-62 NSCLC
SF-268 CNS = system: SF-268 CNS
SF-539 CNS = system: SF-539 CNS
KM12 colon = system: KM12 colon
NCI/ADR-RES ovarian = system: NCI/ADR-RES ovarian
MDA-MB-231 breast = system: MDA-MB-231 breast

CCOC(=O)C1CC(=O)C=C2CCCCC21 (centres undefined)
TGI (NCI-H522 lung): > 100 µM | TGI (CAKI-1 renal): > 100 µM | TGI (XF 498 CNS): > 100 µM | TGI (SNB-78 CNS): > 100 µM | TGI (HOP-62 NSCLC): > 100 µM | TGI (SF-268 CNS): > 100 µM | TGI (SF-539 CNS): > 100 µM | TGI (KM12 colon): > 100 µM

CC1(C)C(=O)/C=C\C(=O)C(C)(C)C2=CC=C(O2)C(C)(C)C(=O)C(Br)C(Br)C(=O)C(C)(C)C2=CC=C1O2 (centres undefined)
TGI (NCI-H522 lung): 59.6 µM | TGI (CAKI-1 renal): > 100 µM | TGI (XF 498 CNS): > 100 µM | TGI (SNB-78 CNS): > 100 µM | TGI (HOP-62 NSCLC): > 100 µM | TGI (NCI/ADR-RES ovarian): 90.2 µM | TGI (MDA-MB-231 breast): > 86.7 µM | TGI (SF-268 CNS): > 100 µM | TGI (SF-539 CNS): > 100 µM | TGI (KM12 colon): > 100 µM

CCOC(=O)NC(=O)c1cn(CCSCCOC(=O)NCCCCCCNC(=O)OCCSCCn2cc(C(=O)NC(=O)OCC)c(=O)n(C)c2=O)c(=O)n(C)c1=O
TGI (XF 498 CNS): 85.4 µM | TGI (SNB-78 CNS): > 100 µM | TGI (HOP-62 NSCLC): > 100 µM | TGI (SF-268 CNS): > 100 µM | TGI (SF-539 CNS): 80.1 µM

O=S1Nc2cccc(C(F)(F)F)c2S1 (centres undefined)
TGI (NCI-H522 lung): > 100 µM | TGI (CAKI-1 renal): > 100 µM | TGI (XF 498 CNS): 98.7 µM | TGI (SNB-78 CNS): > 100 µM | TGI (HOP-62 NSCLC): > 100 µM | TGI (SF-268 CNS): > 100 µM | TGI (SF-539 CNS): > 100 µM | TGI (KM12 colon): 59.9 µM

COc1ccc(C2(Cl)C(Cl)(C(F)(F)F)C2(Cl)C(F)(F)F)cc1 (centres undefined)
TGI (CAKI-1 renal): 29.5 µM | TGI (XF 498 CNS): 25.5 µM | TGI (SNB-78 CNS): 29.7 µM | TGI (HOP-62 NSCLC): 32.5 µM | TGI (SF-268 CNS): 29 µM | TGI (SF-539 CNS): 28.9 µM | TGI (KM12 colon): 27 µM

O/N=C1/CCCC/C1=C\c1ccc(Cl)c(Cl)c1
TGI (CAKI-1 renal): 99.7 µM | TGI (XF 498 CNS): 46.4 µM | TGI (SNB-78 CNS): 70.5 µM | TGI (HOP-62 NSCLC): > 100 µM | TGI (SF-268 CNS): > 100 µM | TGI (SF-539 CNS): 41.1 µM

C[C@@H]1CC[C@@]2(C)OC(c3ccccc3)[C@H](CO)N2C1=O (some centres undefined)
TGI (CAKI-1 renal): > 100 µM | TGI (XF 498 CNS): > 100 µM | TGI (SNB-78 CNS): > 100 µM | TGI (HOP-62 NSCLC): > 100 µM | TGI (SF-268 CNS): > 100 µM | TGI (SF-539 CNS): > 100 µM | TGI (KM12 colon): > 100 µM

C=CC12CCCCC1CC(C(=O)OC)=C(O)C2 (centres undefined)
TGI (NCI-H522 lung): > 100 µM | TGI (CAKI-1 renal): > 100 µM | TGI (XF 498 CNS): > 100 µM | TGI (SNB-78 CNS): > 100 µM | TGI (HOP-62 NSCLC): > 100 µM | TGI (SF-268 CNS): > 100 µM | TGI (SF-539 CNS): > 100 µM | TGI (KM12 colon): > 100 µM

NC1=NN(c2ccccc2)C(=O)C1C(=O)C(=O)Nc1ccccc1 (centres undefined)
TGI (NCI-H522 lung): > 100 µM | TGI (CAKI-1 renal): > 100 µM | TGI (XF 498 CNS): > 100 µM | TGI (SNB-78 CNS): > 100 µM | TGI (HOP-62 NSCLC): > 100 µM | TGI (SF-268 CNS): > 100 µM | TGI (SF-539 CNS): > 100 µM | TGI (KM12 colon): > 100 µM

COc1ccc2cc3c4cc(OC)c(OC)cc4ccn3c2c1
TGI (NCI-H522 lung): > 100 µM | TGI (CAKI-1 renal): > 100 µM | TGI (XF 498 CNS): > 100 µM | TGI (SNB-78 CNS): > 100 µM | TGI (HOP-62 NSCLC): > 100 µM | TGI (SF-268 CNS): > 100 µM | TGI (SF-539 CNS): > 100 µM | TGI (KM12 colon): > 100 µM

CCCCCCCCCCCCCCCCc1c(C(=O)OC)nc(NC#N)[nH]c1=O
TGI (NCI-H522 lung): > 25 µM | TGI (XF 498 CNS): > 25 µM | TGI (SNB-78 CNS): > 25 µM | TGI (HOP-62 NSCLC): > 25 µM | TGI (SF-268 CNS): > 25 µM | TGI (SF-539 CNS): > 25 µM | TGI (KM12 colon): > 25 µM

C=C(C)CC(C(=O)O)c1ccc(C)cc1 (centres undefined)
TGI (CAKI-1 renal): > 100 µM | TGI (XF 498 CNS): > 100 µM | TGI (SNB-78 CNS): > 100 µM | TGI (HOP-62 NSCLC): > 100 µM | TGI (SF-268 CNS): > 100 µM | TGI (SF-539 CNS): > 100 µM | TGI (KM12 colon): > 100 µM

C=CCCn1nc(-c2ccccc2)oc1=O
TGI (NCI-H522 lung): > 100 µM | TGI (CAKI-1 renal): > 100 µM | TGI (XF 498 CNS): > 100 µM | TGI (SNB-78 CNS): > 100 µM | TGI (HOP-62 NSCLC): > 100 µM | TGI (SF-268 CNS): > 100 µM | TGI (SF-539 CNS): > 100 µM | TGI (KM12 colon): > 100 µM

O=C1CCCc2ccc([N+](=O)[O-])c(O)c21
TGI (NCI-H522 lung): > 100 µM | TGI (CAKI-1 renal): > 100 µM | TGI (SNB-78 CNS): > 100 µM | TGI (HOP-62 NSCLC): > 100 µM | TGI (SF-268 CNS): > 100 µM | TGI (SF-539 CNS): > 100 µM | TGI (KM12 colon): > 100 µM

O=CN/C=C/c1ccccc1
TGI (NCI-H522 lung): > 100 µM | TGI (CAKI-1 renal): > 100 µM | TGI (SNB-78 CNS): > 100 µM | TGI (HOP-62 NSCLC): > 100 µM | TGI (SF-268 CNS): > 100 µM | TGI (SF-539 CNS): > 100 µM | TGI (KM12 colon): > 100 µM

CN(C)CC1(C)CC/C(=C\c2ccc(Cl)cc2)C1=O (centres undefined)
TGI (NCI-H522 lung): 33.1 µM | TGI (CAKI-1 renal): > 100 µM | TGI (XF 498 CNS): > 100 µM | TGI (SNB-78 CNS): > 100 µM | TGI (HOP-62 NSCLC): > 100 µM | TGI (SF-268 CNS): > 100 µM | TGI (SF-539 CNS): > 100 µM | TGI (KM12 colon): 80.3 µM

CC(=O)N1c2ccccc2N(C(C)=O)C1c1ccc(C2N(C(C)=O)c3ccccc3N2C(C)=O)[nH]1
TGI (NCI-H522 lung): > 100 µM | TGI (CAKI-1 renal): > 100 µM | TGI (XF 498 CNS): > 100 µM | TGI (HOP-62 NSCLC): > 100 µM | TGI (SF-268 CNS): > 100 µM | TGI (SF-539 CNS): > 100 µM | TGI (KM12 colon): > 100 µM

C[C@]12Cc3conc3C(O)=C1CC[C@@H]1C2CC[C@@]2(C)C1CC[C@@H]2O (some centres undefined)
TGI (NCI-H522 lung): 13.5 µM | TGI (CAKI-1 renal): > 100 µM | TGI (XF 498 CNS): 33.9 µM | TGI (SNB-78 CNS): > 100 µM | TGI (HOP-62 NSCLC): > 100 µM | TGI (SF-268 CNS): 73.1 µM | TGI (SF-539 CNS): 44 µM | TGI (KM12 colon): 70.7 µM
